# Measurements published in US8546357B2, “Boron-containing small molecules for controlling ectoparasites” (priority 2011, dated 2013).
# Experiments:
# [1] = tested on: adult American dog tick (Dermacentor variabilis); test: Therapeutic (knockdown) and residual efficacy against adult American dog tick infestations on dogs, oral; type: in vivo; details: for Residual efficacy: Example 7, oral capsule 35 mg/kg
# Procedure: (§1) The therapeutic (knockdown) and residual efficacy of 5, administered orally at a point dose of 25 mg/kg bodyweight, was evaluated against adult American dog tick (D. variabilis) infestations on dogs. Six beagle dogs were allocated to one of two treatment groups, an untreated control group (n=4 dogs) or 5 group (n=2 dogs). On Day 0, two dogs were treated with 5 via oral gavage (25 mg/ml 5, dissolved in a solution of 55% polyethylene glycol-300, 35% propylene glycol and 10% water) at a point dose of approximately 25 mg/kg. Twenty-four (24) hours before treatment (Day −1), all dogs were infested with approximately 50 unfed, adult-stage American dog ticks (D. variabilis; approximately 50% male and 50% female). On Day 1, approximately 24 hours after treatment, thumb counts were conducted to determine the number and life-status classification of ticks present on all dogs (normal, moribund or dead; attached or detached). Ticks were not removed during thumb counts. On Day 2, approximately 48 hours after treatment, all ticks were classified and removed from dogs. Dogs were re-infested with approximately 50 unfed, adult D. variabilis ticks on Days 5 and 12, with tick classification, counts and removal on Days 7 and 14 (approximately 48 hours after each infestation).
# (§2) The therapeutic (knockdown) and residual efficacy of 7 and 8, each administered orally at a point dose of 25 mg/kg bodyweight, was evaluated against adult tick (Dermacentor variabilis and Rhipicephalus sanguineus) and adult cat flea (Ctenocephalides felis) infestations on dogs. Twelve (12) male and female beagle dogs were randomly allocated to one of three treatment groups, four (4) dogs per group: Untreated control; 7, 25 mg/kg; and 8, 25 mg/kg. On Day −1, all dogs were infested with approximately 50 unfed, adult D. variabilis ticks. On Day 0, dogs were orally administered gelatin capsules containing either 7 or 8 (50% technical active, 47% microcrystalline cellulose and 3% croscarmellose sodium, w/w). Ticks were counted and classified, but not removed, on all dogs on Day 1, approximately 24 hours after treatment. On Day 2, approximately 48 hours after treatment, ticks were counted, classified and removed. Dogs were re-infested with the same number of D. variabilis ticks on Days 5, 12, 19 and 28 and tick counts were conducted on Days 7, 14, 21 and 30.
# (§3) The therapeutic (knockdown) and residual efficacy of 7, administered orally at a point dose of 35 mg/kg bodyweight, was evaluated against adult tick (Dermacentor variabilis and Rhipicephalus sanguineus) and adult cat flea (Ctenocephalides felis) infestations on dogs. Twelve (12) male and female beagle dogs were allocated to either an untreated, negative control group or 7 group (n=6 dogs per group). Dogs were infested with approximately 50 unfed, adult D. variabilis ticks on Days −1, 5, 12, 19, 28, 35 and 42. On Day 0, dogs were orally administered gelatin capsules containing Compound 8194 (50% technical active, 47% microcrystalline cellulose and 3% croscarmellose sodium, w/w) at a point dose of 35 mg/kg. D. variabilis tick counts and classification were conducted on Day 1 (thumb count, approximately 24 hours after treatment) and Days 2, 7, 14, 21, 30, 37 and 44 (approximately 48 hours after treatment). Following removal of D. variabilis ticks on Day 30, all dogs were co-infested with approximately 50 unfed, adult brown dog ticks (R. sanguineus) and approximately 100 unfed, adult cat fleas (C. felis). Brown dog tick and cat flea counts were conducted on Day 32 (approximately 48 hours after infestation). GM percent efficacy of treatments against both tick species and fleas was calculated using the following formula: […]
# The therapeutic (knockdown) and residual efficacy of S-enantiomer, 9, administered orally at a point dose of 25 mg/kg bodyweight, was evaluated against adult tick (Dermacentor variabilis and Rhipicephalus sanguineus) and adult cat flea (Ctenocephalides felis) infestations on dogs. […]
# [2] = Tolerability of oral treatment in dogs; type: in vivo, dog
# Procedure: as §1, §2
# The therapeutic (knockdown) and residual efficacy of 7, administered orally at a point dose of 35 mg/kg bodyweight, was evaluated against adult tick (Dermacentor variabilis and Rhipicephalus sanguineus) and adult cat flea (Ctenocephalides felis) infestations on dogs. Twelve (12) male and female beagle dogs were allocated to either an untreated, negative control group or 7 group (n=6 dogs per group). Dogs were infested with approximately 50 unfed, adult D. variabilis ticks on Days −1, 5, 12, 19, 28, 35 and 42. On Day 0, dogs were orally administered gelatin capsules containing Compound 8194 (50% technical active, 47% microcrystalline cellulose and 3% croscarmellose sodium, w/w) at a point dose of 35 mg/kg. […] GM percent efficacy of treatments against both tick species and fleas was calculated using the following formula: […]
# The therapeutic efficacy and speed of kill of 7, administered orally at a point dose of 20 mg/kg bodyweight, was evaluated against adult cat flea (Ctenocephalides felis) infestations on dogs. […]
# [3] = tested on: cat flea (Ctenocephalides felis); test: Residual efficacy against adult cat flea infestations on dogs, oral; type: in vivo; details: Day 32
# Procedure: Immediately following removal of D. variabilis ticks on Day 30, dogs were co-infested with approximately 50 adult, unfed brown dog ticks (R. sanguineus, approximately 50% male and 50% female) and approximately 100 adult, unfed cat fleas (C. felis, approximately 50% male and 50% female). Ticks and fleas were counted and removed on Day 32 (approximately 48 hours after infestation). GM percent efficacy of treatments against both tick species and fleas was calculated using the following formula: […]
# as §3
# The therapeutic (knockdown) and residual efficacy of S-enantiomer, 9, administered orally at a point dose of 25 mg/kg bodyweight, was evaluated against adult tick (Dermacentor variabilis and Rhipicephalus sanguineus) and adult cat flea (Ctenocephalides felis) infestations on dogs. Twelve (12) male and female beagle dogs were allocated to either an untreated, negative control group or 9 group (n=6 dogs per group). Dogs were infested with approximately 50 unfed, adult D. variabilis ticks on Days −1, 5, 12, 19, and 28. On Day 0, dogs were orally administered gelatin capsules containing 9 (50% technical active, 47% microcrystalline cellulose and 3% croscarmellose sodium, w/w) at a point dose of 25 mg/kg. D. variabilis tick counts and classification were conducted on Day 1 (thumb count, approximately 24 hours after treatment) and Days 2, 7, 14, 21 and 30 (approximately 48 hours after treatment). Following removal of D. variabilis ticks on Day 30, all dogs were co-infested with approximately 50 unfed, adult brown dog ticks (R. sanguineus) and approximately 100 unfed, adult cat fleas (C. felis). Brown dog tick and cat flea counts were conducted on Day 32 (approximately 48 hours after infestation). GM percent efficacy of treatments against both tick species and fleas was calculated using the following formula: […]
# [4] = Table 2, oral capsule 25 mg/kg, Day 2
# [5] = Table 2, oral capsule 25 mg/kg, Day 7
# [6] = Table 2, oral capsule 25 mg/kg, Day 14
# [7] = Table 2, oral capsule 25 mg/kg, Day 21
# [8] = Table 2, oral capsule 25 mg/kg, Day 30
# [9] = Table 3, oral capsule 35 mg/kg, Day 2
# [10] = Table 3, oral capsule 35 mg/kg, Day 7
# [11] = Table 3, oral capsule 35 mg/kg, Day 14
# [12] = Table 3, oral capsule 35 mg/kg, Day 21
# [13] = Table 3, oral capsule 35 mg/kg, Day 30
# [14] = Table 3, oral capsule 35 mg/kg, Day 37
# [15] = Table 3, oral capsule 35 mg/kg, Day 44
# [16] = Example 7, oral capsule 35 mg/kg
compound,measurement,setting,value
"Cc1cc(C2=NOC(c3cc(Cl)c(Cl)c(Cl)c3)(C(F)(F)F)C2)ccc1C(=O)NCc1ccc2c(c1)B(O)OC2(C)C (stereo not drawn) [Compound 7, N-((1-Hydroxy-3,3-dimethyl-1,3-dihydrobenzo[c][1,2]oxaborol-6-yl)methyl)-2-methyl-4-(5-(3,4,5-trichlorophenyl)-5-(trifluoromethyl)-4,5-dihydroisoxazol-3-yl)benzamide]",continued residual efficacy,"[1]; Example 6, oral capsule 25 mg/kg, through at least 14 days",100%
same,Residual efficacy,[1]; through Day 14,> 99%
same,Residual efficacy,[1]; through Day 37,> 95%
same,Geometric mean group live parasite counts,"[1]; Table 2, oral capsule 25 mg/kg, Day 1",0.0
same,% efficacy,[1]; [4],(100) %
same,Geometric mean group live parasite counts,[1]; [4],0.0
same,% efficacy,[1]; [5],(100) %
same,Geometric mean group live parasite counts,[1]; [5],0.0
same,% efficacy,[1]; [6],(100) %
same,Geometric mean group live parasite counts,[1]; [6],0.0
same,% efficacy,[1]; [7],(99.3) %
same,Geometric mean group live parasite counts,[1]; [7],0.3
same,% efficacy,[1]; [8],(73.2) %
same,Geometric mean group live parasite counts,[1]; [8],9.5
same,Geometric mean group live parasite counts,"[1]; Table 3, oral capsule 35 mg/kg, Day 1",0.1
same,% efficacy,[1]; [9],(100) %
same,Geometric mean group live parasite counts,[1]; [9],0.0
same,% efficacy,[1]; [10],(99.1) %
same,Geometric mean group live parasite counts,[1]; [10],0.3
same,% efficacy,[1]; [11],(100) %
same,Geometric mean group live parasite counts,[1]; [11],0.0
same,% efficacy,[1]; [12],(98.4) %
same,Geometric mean group live parasite counts,[1]; [12],0.2
same,% efficacy,[1]; [13],(98.7) %
same,Geometric mean group live parasite counts,[1]; [13],0.4
same,% efficacy,[1]; [14],(95.7) %
same,Geometric mean group live parasite counts,[1]; [14],1.2
same,% efficacy,[1]; [15],(67.2) %
same,Geometric mean group live parasite counts,[1]; [15],9.3
same,tolerability,"[2]; Example 6, oral capsule 25 mg/kg",well tolerated
same,tolerability,[2]; [16],well tolerated
same,Residual efficacy,[3]; [16],100%
same,Geometric mean group live parasite counts,"[3]; Table 2, oral capsule 25 mg/kg",0.9
